“And” between values parts separate entries of the source, which are not always exact repeats. Equal values may be shown once.

The values below come from patent US9157121B2, “Method of treatment based on polymorphisms of the KCNQ1 gene” (Vanda Pharmaceuticals, Inc., priority 2009, dated 2015).

The subject of data set [1] is QTc interval. The conditions noted are these: cited from earlier work; for QTc prolongation: comparison of several antipsychotics.
Data set [2] relates to QTc interval. The data set is described as follows: QTcF change following iloperidone or ziprasidone administration, by KCNQ1 and CYP2D6 genotype. It counts as in vivo, human. Conditions: for QTcFmax Change: change from baseline. The method, then:
The DNA variants in KCNQ1 noted above were examined for correlation with iloperidone-induced QT prolongation.
Individuals from an earlier study of CYP2D6 genotypes and a predisposition to QT prolongation were genotyped at each of the KCNQ1 SNPs above. 22 individuals had been given a dose of 8 mg of iloperidone b.i.d., 30 had been given 12 mg b.i.d., and 22 had been given 24 mg q.d.
The results were similar when ziprasidone was administered at a dosage of 80 mg b.i.d. The QTc changes for each genotype are shown below in Tables 4 and 5.
Tables 10 and 11 below show CYP2D6 metabolizer status against QTcFmax change from baseline for individuals having GG and non-GG genotypes, respectively, at the KCNQ1 79764 position SNP.
In order to assess the CYP2D6 component to such prolongation, QTc change was separately compared to the CYP2D6G1846A and CYP2D6C100T polymorphisms.
Tables 14 and 15 below show QTc changes in individuals grouped according to their KCNQ1 79764, CYP2D6G1846A, and CYP2D6C100T genotypes. […] Similarly, individuals who were GG at KCNQ1 79764 and had one or two mutant alleles at the CYP2D6 loci (i.e., AG or AA at CYP2D6G1846A and CT or TT at CYP2D6C100T) experienced the greatest QT prolongation.

The test system of another data set is QT interval. Description: QT prolongation following iloperidone in 174 individuals genotyped at SNP_A-2279707 (rs179407). It counts as in vivo, human. The conditions noted are these: oral 24 mg/day B.I.D. for two weeks; for High QT, + test (number of individuals) / Low QT, + test (number of individuals): rs179407 genotype TT; for High QT, − test (number of individuals) / Low QT, − test (number of individuals): rs179407 genotype not TT; for Odds Ratio: rs179407 TT versus not TT.

Data set [3] concerns QTc interval. The conditions noted are these: cited from earlier work.
Another data set has as its target CYP2D6 (Homo sapiens, UniProt P10635). Conditions: cited from earlier work.

Chain of CYP2D6 (P10635 whole entry): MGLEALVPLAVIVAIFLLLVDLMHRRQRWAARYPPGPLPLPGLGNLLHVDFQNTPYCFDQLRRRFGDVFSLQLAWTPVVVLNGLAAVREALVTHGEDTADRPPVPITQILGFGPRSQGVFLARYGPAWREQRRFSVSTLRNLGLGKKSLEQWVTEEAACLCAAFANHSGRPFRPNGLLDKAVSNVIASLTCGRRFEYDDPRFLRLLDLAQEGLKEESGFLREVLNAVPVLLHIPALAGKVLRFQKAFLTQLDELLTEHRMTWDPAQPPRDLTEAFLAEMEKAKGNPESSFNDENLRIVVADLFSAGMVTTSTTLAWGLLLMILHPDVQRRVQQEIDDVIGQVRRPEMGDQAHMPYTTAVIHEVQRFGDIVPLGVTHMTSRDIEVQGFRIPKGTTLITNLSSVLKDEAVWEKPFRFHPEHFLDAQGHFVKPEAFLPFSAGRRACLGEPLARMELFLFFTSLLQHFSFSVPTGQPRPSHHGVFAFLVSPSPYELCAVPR

With `Cc1nc2n(c(=O)c1CCN1CCC(c3noc4cc(F)ccc34)CC1)CCCC2` [risperidone], in the data set on QTc interval [1], the QTc prolongation entry is recorded as “associated with a prolongation of the QTc interval”.

Turning to `Cc1cc2c(s1)Nc1ccccc1N=C2N1CCN(C)CC1` [olanzapine], the QTc prolongation result in the data set with QTc interval [1] is on record as “associated with a prolongation of the QTc interval”.

As for `COc1cc(C(C)=O)ccc1OCCCN1CCC(c2noc3cc(F)ccc23)CC1` [Iloperidone], the “QTcFmax Change” value in the data set with QTc interval [2] (KCNQ1 79764 genotype GG, CYP2D6 metabolizer status Extensive) is 16.4 ms; in the data set on QTc interval [2] (KCNQ1 79764 genotype GG, CYP2D6 metabolizer status Intermediate), 18.1 ms; with QTc interval [2] (KCNQ1 79764 genotype GG, CYP2D6 metabolizer status Poor), 33.6 ms; with QTc interval [2] (KCNQ1 79764 genotype Non-GG, CYP2D6 metabolizer status Extensive), 8.3 ms; with QTc interval [2] (KCNQ1 79764 genotype Non-GG, CYP2D6 metabolizer status Intermediate), 3.1 ms; in the data set with QTc interval [2] (KCNQ1 79764 genotype Non-GG, CYP2D6 metabolizer status Poor) it was 24.6 ms. Also, the QTcF change was found to be 10.38 ms in the data set on QTc interval [2] (iloperidone 8 mg b.i.d., 12 mg b.i.d. or 24 mg q.d., KCNQ1 79764 SNP genotype CC); 6.80 ms with QTc interval [2] (iloperidone 8 mg b.i.d., 12 mg b.i.d. or 24 mg q.d., KCNQ1 79764 SNP genotype CG); 17.58 ms in the data set on QTc interval [2] (iloperidone 8 mg b.i.d., 12 mg b.i.d. or 24 mg q.d., KCNQ1 79764 SNP genotype GG); 7.83 ms in the data set with QTc interval [2] (iloperidone 8 mg b.i.d., 12 mg b.i.d. or 24 mg q.d., KCNQ1 79764 SNP genotype Non-GG); 10.8 ms with QTc interval [2] (iloperidone, CYP2D6C100T genotype CC); 16.9 ms with QTc interval [2] (iloperidone, CYP2D6C100T genotype CT). Also, the QTcF change amounted to 19.2 ms in the data set with QTc interval [2] (iloperidone, CYP2D6C100T genotype Non-CC); 31.3 ms in the data set on QTc interval [2] (iloperidone, CYP2D6C100T genotype TT); 41.6 ms with QTc interval [2] (iloperidone, CYP2D6G1846A genotype AA); 15.9 ms in the data set on QTc interval [2] (iloperidone, CYP2D6G1846A genotype AG); 11.1 ms in the data set with QTc interval [2] (iloperidone, CYP2D6G1846A genotype GG); 18.5 ms with QTc interval [2] (iloperidone, CYP2D6G1846A genotype Non-GG). Moreover, the QTcF change in the data set with QTc interval [2] (iloperidone, KCNQ1 78927 position SNP genotype AA) was 7.21 ms; in the data set with QTc interval [2] (iloperidone, KCNQ1 78927 position SNP genotype AC) it was 9.19 ms; in the data set with QTc interval [2] (iloperidone, KCNQ1 78927 position SNP genotype CC) it was 14.08 ms; in the data set with QTc interval [2] (iloperidone, KCNQ1 78927 position SNP genotype Non-CC) it was 6.46 ms; with QTc interval [2] (iloperidone, KCNQ1 79764 GG and CYP2D6C100T CC), 19.2 (n = 15) msec; in the data set on QTc interval [2] (iloperidone, KCNQ1 79764 GG and CYP2D6C100T non-CC), 23.5 (n = 10) msec. For the same compound, the QTcF change in the data set with QTc interval [2] (iloperidone, KCNQ1 79764 GG and CYP2D6G1846A GG) is 19.5 (n = 15) msec; in the data set with QTc interval [2] (iloperidone, KCNQ1 79764 GG and CYP2D6G1846A non-GG), 25.5 (n = 10) msec; in the data set with QTc interval [2] (iloperidone, KCNQ1 79764 non-GG and CYP2D6C100T CC), 7.4 (n = 35) msec; in the data set on QTc interval [2] (iloperidone, KCNQ1 79764 non-GG and CYP2D6C100T non-CC), 12.6 (n = 7) msec; in the data set with QTc interval [2] (iloperidone, KCNQ1 79764 non-GG and CYP2D6G1846A GG), 7.6 (n = 34) msec; in the data set with QTc interval [2] (iloperidone, KCNQ1 79764 non-GG and CYP2D6G1846A non-GG), 9.6 (n = 6) msec. Further, the QTcF change in the data set on QTc interval [2] (iloperidone, KCNQ1 286414 position SNP genotype AA) was 12.50 ms and 12.51 ms; in the data set with QTc interval [2] (iloperidone, KCNQ1 286414 position SNP genotype AG) it was 3.15 ms; in the data set with QTc interval [2] (iloperidone, KCNQ1 286414 position SNP genotype GG) it was 10.34 ms; in the data set with QTc interval [2] (iloperidone, KCNQ1 286414 position SNP genotype Non-AA) it was 5.16 ms. In the data set on QTc interval [2] (iloperidone, KCNQ1 79764 SNP), the “average QTc change, GG genotype relative to non-GG genotype” value is given as “more than twice the change in individuals with a non-GG genotype”. Further, the results for the “High QT, + test (number of individuals)” value in the data set with QT interval (threshold QT > 5 msec), in the data set on QT interval (threshold QT > 15 msec) and with QT interval (threshold QT > 30 msec) were 102, 64 and 26, respectively. Further, the results for the “Low QT, + test (number of individuals)” value with QT interval (threshold QT > 5 msec), in the data set with QT interval (threshold QT > 15 msec) and in the data set on QT interval (threshold QT > 30 msec) were 47, 85 and 123, respectively. Moreover, the “High QT, − test (number of individuals)” value in the data set with QT interval (threshold QT > 5 msec) is 15; with QT interval (threshold QT > 15 msec), 9; in the data set on QT interval (threshold QT > 30 msec), 2. Further, the entries for the “Low QT, − test (number of individuals)” value with QT interval (threshold QT > 5 msec), in the data set with QT interval (threshold QT > 15 msec) and in the data set with QT interval (threshold QT > 30 msec) were 19, 25 and 32, respectively. The “Odds Ratio” value came out at 2.749 with QT interval (threshold QT > 5 msec), 2.092 in the data set on QT interval (threshold QT > 15 msec) and 3.382 in the data set with QT interval (threshold QT > 30 msec). Besides, the “effect on the QTcF duration with metabolic inhibition” value in the data set on QTc interval [3] (adding an inhibitor of CYP2D6) was “increases the effect of iloperidone on the QTcF duration”. Moreover, in the data set on QTc interval [3] (in vivo), the “effect on QTc duration” value is listed as “some effects on QTc duration”. Also, on CYP2D6, the metabolizing enzyme entry was “metabolized by CYP2D6”.

For `OCCOCCN1CCN(C2=Nc3ccccc3Sc3ccccc32)CC1` [Quetiapine], the QTc prolongation result in the data set on QTc interval [1] is “associated with a prolongation of the QTc interval”.

On to `O=C1Cc2cc(CCN3CCN(c4nsc5ccccc45)CC3)c(Cl)cc2N1` [Ziprasidone, ziprasidone], for which the QTcF change was 8.30 ms in the data set on QTc interval [2] (ziprasidone 80 mg b.i.d., KCNQ1 79764 SNP genotype CC); 6.19 ms with QTc interval [2] (ziprasidone 80 mg b.i.d., KCNQ1 79764 SNP genotype CG); 15.32 ms in the data set on QTc interval [2] (ziprasidone 80 mg b.i.d., KCNQ1 79764 SNP genotype GG); 6.75 ms with QTc interval [2] (ziprasidone 80 mg b.i.d., KCNQ1 79764 SNP genotype Non-GG). For the same compound, in the data set on QTc interval [1], the QTc prolongation result was “highest degree of QTc prolongation, followed by ziprasidone”.

With `O=C(CCCN1CCC(O)(c2ccc(Cl)cc2)CC1)c1ccc(F)cc1` [haloperidol], the “increase in QTc with metabolic inhibition” value with QTc interval [1] (with metabolic inhibitors of the CYP450 isoenzyme responsible for the metabolism of each drug) is “doubling of QTc”.
